Converted amounts (≈) assume the structure as drawn. Ends that are not written are not given here.
Assays:
S180 sarcoma = test system: S180 sarcoma; parameters: species or system mice; conditions: mouse, in vivo
H22 hepatic carcinoma = test system: H22 hepatic carcinoma; parameters: species or system mice; conditions: mouse, in vivo
A431 = assay: cells; assay type: cell-based; conditions: Homo sapiens, A-431
Tca83 = assay: cells; assay type: cell-based; conditions: Homo sapiens
Ketr-3 = assay: cells; assay type: cell-based; conditions: Homo sapiens, KETR3
A549 = assay: cells; assay type: cell-based; conditions: Homo sapiens
KB = assay: cells; assay type: cell-based; conditions: Homo sapiens
HeLa = assay: cells; assay type: cell-based; conditions: Homo sapiens
Bel7402 = assay: cells; assay type: cell-based; conditions: Homo sapiens, Bel-7402
Hep-2 = assay: cells; assay type: cell-based; conditions: Homo sapiens
HELF = assay: cells; assay type: cell-based; conditions: Homo sapiens
MCF-7 = assay: cells; assay type: cell-based; conditions: Homo sapiens, MCF7
EJ = assay: cells; assay type: cell-based; conditions: Homo sapiens
CaEs-17 = assay: cells; assay type: cell-based; conditions: Homo sapiens, CaEs17
BGC-823 = assay: cells; assay type: cell-based; conditions: Homo sapiens
HCT-8 = assay: cells; assay type: cell-based; conditions: Homo sapiens
PC-3M = assay: cells; assay type: cell-based; conditions: Homo sapiens
[1] = parameters: species or system mice; conditions: mouse, in vivo
mononuclear phagocytes = test system: mononuclear phagocytes; parameters: species or system mice; conditions: mouse, in vivo

In the case of RKDVY [thymopentin], the “pathological picture of tumor tissue” value (S180 sarcoma) is reported as “a few tumor cells were necrotic and degenerative” and the “pathological picture of tumor tissue” value (H22 hepatic carcinoma) is reported as “a little of tumor cell necrosis and degeneration”.
Compound `O=c1[nH]cc(F)c(=O)[nH]1` [Fluorouracil] has an IC50 (A431) of 0.174 ± 0.0447 µg/mL (≈ 1.34 µM), an IC50 (Tca83) of 0.924 ± 0.0435 µg/mL (≈ 7.1 µM) and an IC50 (Ketr-3) of 0.634 ± 0.0147 µg/mL (≈ 4.87 µM). The IC50 (A549) was 0.425 ± 0.034 µg/mL (≈ 3.27 µM), the IC50 (KB) was 0.66 ± 0.0085 µg/mL (≈ 5.07 µM) and the IC50 (HeLa) was 0.613 ± 0.05 µg/mL (≈ 4.71 µM). The IC50 (Bel7402) was 0.718 ± 0.0067 µg/mL (≈ 5.52 µM), the IC50 (Hep-2) was 4.88 ± 2.22 µg/mL (≈ 37.5 µM) and the IC50 (HELF) was 0.087 ± 0.004 µg/mL (≈ 0.669 µM). For the same compound, the IC50 (MCF-7) was 0.646 ± 0.0437 µg/mL (≈ 4.97 µM), the IC50 (EJ) was 3.69 ± 0.909 µg/mL (≈ 28.4 µM) and the IC50 (CaEs-17) was 0.757 ± 0.0254 µg/mL (≈ 5.82 µM). For the same compound, the IC50 (BGC-823) was 0.632 ± 0.0572 µg/mL (≈ 4.86 µM), the IC50 (HCT-8) was 0.605 ± 0.0278 µg/mL (≈ 4.65 µM) and the IC50 (PC-3M) was 1.49 ± 1.07 µg/mL (≈ 11.4 µM).
For “Thymosin Alpha-1 (SDAAVDTSSEITTKDLKEKKEVVEEAEN; not fully specified (N-terminus); ends and bridges not checked; UniProt P06454 2-29, looked up) [biological drug, registration No. H20050339]”, the Elongation index [1] was 37.5%, the Swimming time [1] was 18.9 ± 2.98 min and the “Index of phagocytosis, K” value (mononuclear phagocytes) was 0.3473 ± 0.0130. For the same compound, the “Phagocytosis activity, α” value (mononuclear phagocytes) was 7.9583 ± 0.5069.
For `O=P1(N(CCCl)CCCl)NCCCO1` (stereo not shown) [Cyclophosphamide], the “pathological picture of tumor tissue” value (S180 sarcoma) was “necrotic and degenerated tissue scattered”, the “pathological picture of tumor tissue” value (H22 hepatic carcinoma) was “necrotic and degenerated tissue scattered” and the “Index of phagocytosis, K” value (mononuclear phagocytes) was 0.0744 ± 0.0081. The “Phagocytosis activity, α” value (mononuclear phagocytes) was 4.4614 ± 0.2413.
